Measurements published in patent publication US9163044B2, “Carbon monoxide releasing molecules and uses thereof” (Alfama, Inc., priority 2011, dated 2015).
Entries after “also recorded” stand apart in the source; their conditions may differ.

Experiments:
[1] = CO release kinetics in 50 mM HEPES buffer (pH 7.4), GC-RCP; type: physicochemical; details: for CO equivalents released in 24 hours in the dark / CO equivalents released in 24 hours under light: 50 mM HEPES buffer
Description: The quantization of the released CO was performed according to Vreman et al. Anal. Biochem. (2005) 341: 280-289 using a Gas Chromatograph with a Reducing Compound Photometer detector (GC-RCP; Peak Laboratories, Mountain View, Calif.), which allows quantifying CO in gas mixtures at concentrations as low as 1-2 parts per billion (ppb).
General Method for the Determination of CO Release in HEPES Buffer
The CO release kinetics of all compounds was evaluated in 50 mM HEPES buffer (pH 7.4) in a sealed 8-mL vial. […] Since light activation can release CO from molybdenum carbonyl compounds, CO release was determined with solutions in closed, clear glass vials kept under light (on the laboratory bench under regular laboratory lighting) or in the dark (wrapped in aluminum foil and kept inside a cardboard box). Gas samples (from 10 μL up to 500 μL) of the vial headspace (7 ml volume) were removed with a gas-tight syringe at 15, 30, 60, 120, 240, 360 min, and 24 hours after start of the incubation. The gas samples were injected into sealed vials containing air (8 mL) for dilution. The entire gas volume of the vials (8 mL) was transferred with carrier gas to the GC-RCP and analyzed for CO. The GC-RCP had been calibrated with gas containing a known amount of CO. The calibration curve had been established starting with gas from a cylinder which contained synthetic air with 30 ppm CO (Linde, Cat. No. 14960013) and preparing dilutions in 8-mL vials as described above.
The CO equivalents released at each time point from each compound were determined by the following equation: (CO released (pmol)×number of CO ligands in the molecule)/([CO] in the compound (pmol)).

[2] = test system: APAP-induced acute liver failure (ALF) model; experiment: APAP-induced acute liver failure (ALF) model, sublethal (300 mg/kg APAP i.p.); type: in vivo, C57Bl/6 male mice; details: for % ALT increase relative to increase with APAP alone Experiment 1 / % ALT increase relative to increase with APAP alone Experiment 2 / Measured ALT values (mean ± S.D.) Experiment 1 / Measured ALT values (mean ± S.D.) Experiment 2: alone or plus NAC (300 mg/kg), at 1 h and 3 h post APAP; for Measured ALT values (mean ± S.D.) Experiment 1 / Measured ALT values (mean ± S.D.) Experiment 2: serum 22 h; for therapeutic activity in acetaminophen induced ALF (in words): mouse, in vivo
Description: Compound 3b was studied in a sublethal model for acetaminophen (APAP)-induced Liver Injury.
ALF was induced in C57Bl/6 male mice with a single dose of acetaminophen (300 mg/kg) by i.p. injection. […] Serum alanine aminotransferase (ALT) was measured 22 h after APAP injection (n=5 mice for each group). […] ALF was induced in C57Bl/6 male mice with a single dose of acetaminophen (300 mg/kg) by i.p. injection. […] Twenty-two hours after APAP injection serum ALT was measured (indicated in FIG. 11A), centrilobular sections of mouse livers were cut and stained with hematoxylin and eosin, and the percentage of liver necrosis was determined. The data indicates a dose-dependent reduction of ALT levels of 9% to 83% relative to APAP control, and a dose-dependent reduction of necrosis of 0% to 56% relative to APAP control.
ALF was induced in C57Bl/6 male mice with a single dose of acetaminophen (300 mg/kg) by i.p. injection. […] Alanine aminotransferase (ALT) was measured 22 h after APAP injection (n=4 or n=5 mice for each group).
ALF was induced in C57Bl/6 male mice with a single dose of acetaminophen (300 mg/kg) by i.p. injection. […] Twenty-two hours after APAP injection, serum ALT was measured (indicated in FIGS. 12A-12B), centrilobular sections of mouse livers were cut and stained with hematoxylin and eosin, and the percentage of liver necrosis was determined.
ALF was induced in C57Bl/6 male mice with a single dose of acetaminophen (300 mg/kg) by i.p. injection.
FIG. 14 depicts the effect of late treatment with Compound 3b on serum ALT in ALF model. ALF was induced in C57Bl/6 male mice with a single dose of acetaminophen (300 mg/kg) by i.p. injection. At sixteen hours after APAP injection, the animals were treated with different doses of Compound 3b (0.3, 3, 30 or 60 mg/kg). Alanine aminotransferase (ALT) was measured 22 h after APAP injection (n=4 or n=5 mice for each group).
ALF was induced in C57Bl/6 male mice with a single dose of acetaminophen (300 mg/kg) by i.p. injection. […] Experiments 1 and 2 represent two independent experiments. Alanine aminotransferase (ALT) was measured 22 h after APAP injection (n=4 or n=5 mice for each group). The ALT levels and the respective percentage of ALT increase, relative to the increase observed in mice injected with APAP alone, are presented in Table 7.
ALF was induced in C57Bl/6 male mice with a single dose of acetaminophen (300 mg/kg) by i.p. injection. […] Twenty-two hours after APAP injection, serum ALT was measured and centrilobular sections of mouse livers were cut and stained with hematoxylin and eosin.

Molecule | CO equivalents released in 24 hours in the dark [1] [CO equivalents] | CO equivalents released in 24 hours under light ([1]; under light) [CO equivalents] | effect of a single dose administered 16 hours after APAP injury (in words) ([2]; 0.3, 3, 30 or 60 mg/kg at 16 h, ALT 22 h after APAP) | therapeutic effect, 2 doses given at 1 h and 3 h after APAP (in words) ([2]; 2×60 and 2×120 mg/kg, NAC 2×300 mg/kg, evaluated 22 h post APAP) | % ALT increase relative to increase with APAP alone Experiment 1 ([2]; 3b 2 × 60 mg/kg) [%] | % ALT increase relative to increase with APAP alone Experiment 2 ([2]; 3b 2 × 60 mg/kg) [%] | Measured ALT values (mean ± S.D.) Experiment 1 ([2]; 3b 2 × 60 mg/kg) [U/L] | Measured ALT values (mean ± S.D.) Experiment 2 ([2]; 3b 2 × 60 mg/kg) [U/L] | % ALT increase relative to increase with APAP alone Experiment 1 ([2]; 3b 2 × 120 mg/kg) [%] | % ALT increase relative to increase with APAP alone Experiment 2 ([2]; 3b 2 × 120 mg/kg) [%] | Measured ALT values (mean ± S.D.) Experiment 1 ([2]; 3b 2 × 120 mg/kg) [U/L] | Measured ALT values (mean ± S.D.) Experiment 2 ([2]; 3b 2 × 120 mg/kg) [U/L] | liver histology: necrosis (in words) ([2]; Compound 3b 2×100 or 2×300 mg/kg, NAC 2×300 mg/kg, at one and three hours after APAP, 22 h) | effect on serum ALT when given late after APAP injury (in words) ([2]; five hours and seven hours after APAP, NAC 150 mg/kg, Compound 3b 120 mg/kg) | therapeutic activity in acetaminophen induced ALF (in words) [2] | time to release 0.5 CO equivalents under light ([1]; 50 mM HEPES pH 7.4, 50 μM, under light) | reduction of necrosis relative to APAP control (in words) ([2]; 60 mg/kg, 1 h after APAP)
[C-]#[N+]C(C)(C)C(=O)O.[C-]#[N+]C(C)(C)C(=O)O.[C-]#[N+]C(C)(C)C(=O)O.[C-]#[O+].[C-]#[O+].[C-]#[O+].[Mo] [Compound 3b, tricarbonyl[tris(2-isocyano-2-methyl-propionic acid)]Mo(0)] | 1.3 | 1.8 | dose-dependent therapeutic effect | highly therapeutic; also recorded: as effective as NAC | 57.2 ± 14.5 | 45.0 ± 8.1 | 5180 ± 1312 | 5500 ± 987 | 49.5 ± 7.0 | 35.7 ± 7.6 | 4480 ± 630 | 4360 ± 926 | very little if any necrosis | therapeutic | strong therapeutic activity |  | 
CC([N+]#[C][Mo-6]([C]#[O+])([C]#[O+])([C]#[O+])([C]#[N+]C(C)C(=O)O)[C]#[N+]C(C)C(=O)O)C(=O)O (centres unmarked) [Compound 2b, tricarbonyl[tris(2-isocyanopropionic acid)]Mo(0)] | 1.2 | 1.5 |  |  |  |  |  |  |  |  |  |  |  |  | still retains therapeutic activity although lower than that of Compound 3b | about 90 minutes | 
tricarbonyl[tris(isocyanoacetic acid)]Mo(0) [Compound 1b] | 1.4 | 1.6 |  |  |  |  |  |  |  |  |  |  |  |  | lack of activity |  | does not reduce necrosis
